Laboratory results: patent US9487557B2, “Peptides for management of lactation” (MILEUTIS LTD., priority 2012, dated 2016)
Square brackets hold non-standard residues; d marks the D form. Ends that are not written are not given here. pS = N[C@@H](COP(=O)(O)O)C(=O)O

Experiments:
Assay type in all cases: in vivo
[1] = tested on: mammary gland of lactating dairy cows; test: Field study of involution induction: change of pH in milk samples after a single intramammary infusion at dry-off; conditions: difference in pH vs Day 0, single intramammary infusion, peptides 4 mg in 10 ml, casein hydrolyzate 20 ml
Procedure: (§1) A filed study was performed to assess the potential of a single intramammary dose of the synthetic peptides of the invention administered at dry (i.e. at the day in which milking is ceased), to induce rapid involution.
(§2) Total of 107 dairy cows were enrolled to the study, of which 45 received treatment and 62 served as a control. All cows were dairy cows at their first or further lactation that stand the inclusion/exclusion criteria. The study was a controlled blinded case-control study.
(§3) Case subjects received one dose by intramammary infusion of a particular peptide. Controls were lactating cows that received the following products by intramammary administration:
(§4) Five groups of 9 cows (total of 36 udder quarters per group) were scheduled as case groups. Each group was treated with one out of the five (5) phosphopeptides described in Example 1 hereinabove (P241210-01-01; 03; 05; 07 and 09). The peptides were administered once via intramammary infusion of 10 ml containing 4 mg peptide.
(§5) Set one: Five groups of 9 cows (total of 36 udder quarters per group) were scheduled as a first control set. Each group was treated with one out of the five (5) dephosphorylated peptides described in Example 1 hereinabove (P241210-01-02; 04; 06; 08 and 10). The peptides were administered once via intramammary infusion of 10 ml containing 4 mg peptide.
(§6) (i) Eleven cows (total of 44 udder quarters) treated with casein hydrolyzate (20 ml) administered once via intramammary infusion of 20 ml (around 1.8 mg/ml casein phosphopeptide (CPP), total=36 mg CPP for 20 ml)
(§7) All treatments (peptides, casein hydrolyzate and saline) were administered at the time point scheduled for cessation of milking (dry off). The day of administration was set as Day 0.
(§8) Sets of aseptic milk samples were collected in two separate vials once a day in the milking facility after the morning milking, on Day 0 and in post-treatment days 1, 2 and 3. The sampling time points were set to up to three days after treatment administration to ensure sufficient milk secretion for the measurements of all involution parameters. The volume of the samples was between 30 to 50 ml. The pH of the milk sample was measured in situ using a Cyberscan pH11 meter (Eutech Instruments, Singapore). The apparatus was calibrated each day by immersing the receptor in standard buffers of pH 7.0 and pH 4.01. Measurements were taken twice for each sample obtained from a mammary gland, with an interval of 30 seconds between measurements. pH measurement was repeated on-site by using the same sample vial. Before double-pH measurement, the milk sample vials were gently shaken three (3) times. After the pH measurement, the milk samples vials were kept in cool storage with a preservative product (Broad Spectrum Microtabs II—Bronopol and Metamycin—D&F Control System Inc., Two Technology Way, Norwood Mass. 02062 USA).
(§9) Endpoint Measures: pH, lactose and somatic cell counts (SCC) values from milk secretions at day 0 and during three (3) days post-treatment were taken. Results are described as the difference between the measures at each of the 3 days post treatment and the measured level at Day 0.
Table 2 below summarizes the effect of the peptides examined and of casein hydrolyzate (CNH) on the pH of milk samples taken 1, 2 and 3 days after the one-dose treatment with each peptide or CNH. The results are presented as the difference in pH value between each of the days post treatment and Day 0 (before treatment).

[2] = tested on: mammary gland of lactating dairy cows; test: Field study of involution induction: change in lactose content of milk samples after a single intramammary infusion at dry-off; conditions: difference in lactose concentration vs Day 0, single intramammary infusion, peptides 4 mg in 10 ml, casein hydrolyzate 20 ml
Procedure: as §1, §2, §3, §4, §5, §6, §7, §8
Lactose values in the milk samples were determined at the Central Laboratory of Milk Quality, Caesaria Industrial Park, Israel, according to ISO 2266211DF 198:2007.
Data from six quarters were excluded from the analysis of lactose changes. Data from one of those quarters were omitted due to a missing initial value. For the other five quarters, lactose concentrations taken during the three follow-up days could not be analyzed due to a rapid mammary involution process, resulting in non-sufficient milk sample for lactose analysis.
as §9
One of the most significant outcomes of involution in terms of milk composition is a reduction in lactose content. Thus, lactose concentration was also measured in the milk samples taken before and after peptide or CNH administration as described for the pH measurements hereinabove. […]

[3] = tested on: mammary gland of lactating dairy cows; test: Field study of involution induction: change in somatic cell counts in milk samples after a single intramammary infusion at dry-off; conditions: change vs Day 0, calculated from log transformation of raw data, single intramammary infusion, peptides 4 mg in 10 ml, casein hydrolyzate 20 ml
Procedure: as §1, §2, §3, §4, §5, §6, §7, §8
Somatic cell count was also determined in milk samples by Fossomatic 360 (Foss Electric, Hillerod, Denmark), and based on guidelines from the USA National Mastitis Council. Laboratory Handbook on Bovine Mastitis. 1999. Ed. National Mastitis Council, Verona, Wis. 53593 USA.
as §9
Additional parameter that may be used to establish the progression of the involution process is the presence of somatic cells within the milk. The increase in cell count within the milk is the result of high degree of apoptotic epithelial cell death associated with involution. […] The results presented in the table were calculated from log transformation of the raw data that were highly variable.

“Lys-Ser(P)-Ser(P)-Ser(P)-Glu-Glu-NH2 (K[pS][pS][pS]EE-NH2; N-terminus assumed; SMILES NCCCC[C@H](N)C(=O)N[C@@H](COP(=O)(O)O)C(=O)N[C@@H](COP(=O)(O)O)C(=O)N[C@@H](COP(=O)(O)O)C(=O)N[C@@H](CCC(=O)O)C(=O)N[C@@H](CCC(=O)O)C(N)=O) [E(p), casein-derived peptide, positive control]” was tested, and the “Changes of pH in milk samples, Day 1, Mean” value ([1]; Day 1 post treatment) was 0.045, the “Changes of pH in milk samples, Day 2, Mean” value ([1]; Day 2 post treatment) was 0.061 and the “Changes of pH in milk samples, Day 3, Mean” value ([1]; Day 3 post treatment) was 0.128. For the same substance, the “Changes in Lactose content in milk samples, Day 1, Mean” value ([2]; Day 1 post treatment) was −0.354, the “Changes in Lactose content in milk samples, Day 2, Mean” value ([2]; Day 2 post treatment) was −1.530 and the “Changes in Lactose content in milk samples, Day 3, Mean” value ([2]; Day 3 post treatment) was −2.042. The “Changes in Somatic Cell Counts in milk samples, Day 1, Mean” value ([3]; Day 1 post treatment) was 0.060, the “Changes in Somatic Cell Counts in milk samples, Day 2, Mean” value ([3]; Day 2 post treatment) was 1.175 and the “Changes in Somatic Cell Counts in milk samples, Day 3, Mean” value ([3]; Day 3 post treatment) was 1.847.
